Reference: PMC11740271 (Annals of neurology, 2024)
“And” between values parts separate entries of the source, which are not always exact repeats. Identical values can stand only once. Like-named read-outs stand apart in the source and are kept apart here.

What was measured:
6 Hz (44 mA) seizures [1] = assay: 6 Hz; type: in vivo, mice; conditions: Mus musculus, ip, 1 h, read-out: ED50, 6 Hz (44 mA)
corneal kindled seizures [2] = assay: Corneal kindled mouse model; type: in vivo, mice; conditions: ip, read-out: ED50, CKM
[3] = test system: hippocampal paroxysmal discharges (HPDs); assay: Intra-hippocampal kainate mouse; type: in vivo; conditions: male mice, 50 mg/kg i.p., 1 h post-drug, mean ± SEM
[4] = test system: motor function and coordination; assay: Rotarod test in mice; type: in vivo; conditions: male mice (C57BL/6J), i.p., PT 0.5 h; 95% CI in parentheses
Minimal motor impairment = type: in vivo, rats; conditions: Sprague-Dawley, rat, in vivo, ip
[5] = test system: minimal motor impairment (ataxia); assay: Minimal motor impairment; type: in vivo, rats; conditions: i.p.
[6] = test system: autonomic, neuromuscular, sensorimotor and behavioral functions; assay: Modified Irwin test in rats; type: in vivo; conditions: male rats, i.p.
GLT-1 [7] = assay: GLT-1 expression in neuron-glia cultures; type: cell-based, rat; conditions: 14 DIV neuron-glia cultures, 72 h
GLT-1 [8] = assay: GLT-1 expression in mouse hippocampus; type: in vivo; conditions: C57BL/6J mice
GLT-1 [9] = assay: GLT-1 expression in mouse cortex; type: in vivo; conditions: C57BL/6 mice
EAAT1 = conditions: cited from earlier work
EAAT3 = conditions: cited from earlier work
TMEV-induced seizures = conditions: mice; doses as in Table S14; cited from earlier work
corneal kindled seizures [10] = conditions: mice, i.p.; from literature ED50/TD50, ref as in Table S11; cited from earlier work
6 Hz (44 mA) seizures [11] = conditions: mice, i.p.; from literature ED50/TD50, ref as in Table S11; cited from earlier work

C[C@H](C(=O)NCc1ccccc1)N1C(=O)CCC1=O [(R)-AS-1, (R)-N-benzyl-2-(2,5-dioxopyrrolidin-1-yl)propanamide]
ED50 (6 Hz (44 mA) seizures [1]): 65.9 mg/kg | ED50 (corneal kindled seizures [2]; 1 h): 38.2 mg/kg | ED50 (corneal kindled seizures [2]; […]): 40.5 mg/kg | HPD count as percent of baseline (peak effect) [3]: 52.81 ± 13.45% and ~ 50% | TD50, rotarod test [4]: 168.2 (117.4–242.0) mg/kg | TD50 at […] (Minimal motor impairment; female): > 500 mg/kg | TD50 at 0.5 h (Minimal motor impairment; male): 254 mg/kg | N/F with adverse effects, TOX (MMI) ([5]; female rats, 500 mg/kg, […]): 2/8 | abnormal gait, animals affected / tested ([5]; female rats, 500 mg/kg, […]): 3/8 | tremors, animals affected / tested ([5]; female rats, 500 mg/kg, […]): 6/8 | slight ataxia, share of rats ([5]; female rats, 500 mg/kg, at 0.5 h and 1 h): 12.5% | N/F with adverse effects, TOX (MMI) ([5]; male rats, 300 mg/kg, 1 h): 1/8 | N/F with adverse effects, TOX (MMI) ([5]; male rats, 300 mg/kg, […]): 1/8 | adverse events at later time points (Irwin test) ([6]; 300 mg/kg, 2, 4, and 24 h): no adverse events | staggering, share of rats (Irwin test) ([6]; 300 mg/kg, 0.5 h, 1/4): 25% | ataxia, share of rats (Irwin test) ([6]; 300 mg/kg, 0.5 h, 2/4): 50% | ataxia, share of rats (Irwin test) ([6]; 300 mg/kg, 1 h, 1/4): 25% | staggering, share of rats (Irwin test) ([6]; 300 mg/kg, 1 h, 2/4): 50% | anesthesia, share of rats (Irwin test) ([6]; 300 mg/kg, […], 2 rats out of 4): 50% | tolerability in the Irwin test ([6]; doses of 100, 150, and 250 mg/kg, all time points): very well tolerated | GLT-1 protein expression (Western blotting) (GLT-1 [7]; 100 nM and 100 μM): did not alter | GLT-1 expression in the hippocampus (qualitative confocal microscopy) (GLT-1 [8]; 100 mg/kg i.p. BID for 7 days): did not alter | GLT-1 protein expression in brain lysates (quantitative Western blot) (GLT-1 [9]; 100 mg/kg i.p. BID for 7 days): did not show any alteration | interaction with EAAT1 (EAAT1): does not interact | interaction with EAAT3 (EAAT3): does not interact

C=C(C)[C@@H]1CCC(C)=C[C@H]1c1c(O)cc(CCCCC)cc1O [Cannabidiol]
effect in the TMEV model (TMEV-induced seizures): effectively reduced TMEV-induced seizures

NC(=O)N1c2ccccc2C=Cc2ccccc21 [Carbamazepine]
effect in the TMEV model (TMEV-induced seizures): ineffective

CCOC(=O)Nc1ccc(NCc2ccc(F)cc2)cc1N [Ezogabine]
PI, CKM (reference ASMs) (corneal kindled seizures [10]): 1.5

COC[C@@H](NC(C)=O)C(=O)NCc1ccccc1 [Lacosamide]
effect in the TMEV model (TMEV-induced seizures): significantly reduced seizure burden

Nc1nnc(-c2cccc(Cl)c2Cl)c(N)n1 [Lamotrigine]
PI, CKM (reference ASMs) (corneal kindled seizures [10]): 1.0 | effect in the TMEV model (TMEV-induced seizures): ineffective

CC[C@@H](C(N)=O)N1CCCC1=O [Levetiracetam]
effect in the TMEV model (TMEV-induced seizures): significantly reduced seizure burden

Cc1ccsc1C(=CCCN1CCC[C@@H](C(=O)O)C1)c1sccc1C [Tiagabine]
PI, 6 Hz, 44 mA (reference ASMs) (6 Hz (44 mA) seizures [11]): 6 | effect in the TMEV model (TMEV-induced seizures): significantly reduced seizure burden

CCCC(CCC)C(=O)O [Valproate]
effect in the TMEV model (TMEV-induced seizures): significantly reduced seizure burden

CN(C)CCC=C1c2ccccc2CCc2ccccc21 [amitriptyline, reference compound]
GLT-1 signal in the hippocampus (qualitative confocal microscopy) (GLT-1 [8]; 10 mg/kg i.p. QD for 7 days): strong increase | GLT-1 protein expression in brain lysates (quantitative Western blot) (GLT-1 [9]; 10 mg/kg i.p. for 7 days, P < 0.05): significant increase

CO/N=C(\C(=O)N[C@@H]1C(=O)N2C(C(=O)O)=C(CSc3nc(=O)c(=O)[nH]n3C)CS[C@H]12)c1csc(N)n1 [ceftriaxone, reference compound]
GLT-1 protein expression (Western blotting) (GLT-1 [7]; 1 mM): significantly increased
